Data as given in patent publication US9637473B2, “Acrylamide derivatives as antimalarial agents” (priority 2013, dated 2017).

These compounds were tested on P. Falciparum NF54 (assay: Plasmodium falciparum in vitro assay ([3H]-hypoxanthine incorporation)). Settings: Plasmodium falciparum, Erythrocyte, P. Falciparum NF54, erythrocytic stages in human red blood cells, 50% human serum.
Type: cell-based
Summary of the method: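 Activity against the blood stages of Plasmodium falciparum growing in human red blood cells was measured by how much [3H]-hypoxanthine the parasites took up. Filters were dried, sealed in plastic foil containing 10 mL of scintillation fluid, and read on a Betaplate liquid scintillation counter. IC50 values came from sigmoidal inhibition curves fitted in Microsoft Excel.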
With `Cc1cccc(/C=C/C(=O)N(Cc2ccc(N(C)c3ccncc3)cc2)C2CCN(Cc3ccccc3)CC2)c1` [Example 159, (E)-N-(1-Benzyl-piperidin-4-yl)-N-[4-(methyl-pyridin-4-yl-amino)-benzyl]-3-m-tolyl-acrylamide] the IC50 was 195 nM.
Compound `Cc1ccccc1/C=C/C(=O)N(Cc1ccc(N(C)c2ccncc2)cc1)C1CCN(Cc2ccccc2)CC1` [Example 160, (E)-N-(1-Benzyl-piperidin-4-yl)-N-[4-(methyl-pyridin-4-yl-amino)-benzyl]-3-o-tolyl-acrylamide] has an IC50 of 167 nM.
`CN(c1ccncc1)c1ccc(CN(C(=O)/C=C/c2ccc(C(F)(F)F)nc2)C2CCN(Cc3ccccc3)CC2)cc1` [Example 161, (E)-N-(1-Benzyl-piperidin-4-yl)-N-[4-(methyl-pyridin-4-yl-amino)-benzyl]-3-(6-trifluoromethyl-pyridin-3-yl)-acrylamide] showed an IC50 of 58 nM.
`CN(c1ccncc1)c1ccc(CN(C(=O)/C=C/c2ccc(S(C)(=O)=O)cc2)C2CCN(Cc3ccccc3)CC2)cc1` [Example 162, (E)-N-(1-Benzyl-piperidin-4-yl)-3-(4-methanesulfonyl-phenyl)-N-[4-(methyl-pyridin-4-yl-amino)-benzyl]-acrylamide] gave an IC50 of 160 nM.
With `Cc1nc(C)c(/C=C/C(=O)N(Cc2ccc(N(C)c3ccncc3)cc2)C2CCN(Cc3ccccc3)CC2)s1` [Example 163, (E)-N-(1-Benzyl-piperidin-4-yl)-3-(2,4-dimethyl-thiazol-5-yl)-N-[4-(methyl-pyridin-4-yl-amino)-benzyl]-acrylamide] the IC50 was 289 nM.
For `Cc1c(/C=C/C(=O)N(Cc2ccc(N(C)c3ccncc3)cc2)C2CCN(Cc3ccccc3)CC2)cnn1C` [Example 164, (E)-N-(1-Benzyl-piperidin-4-yl)-3-(1,5-dimethyl-1H-pyrazol-4-yl)-N-[4-(methyl-pyridin-4-yl-amino)-benzyl]-acrylamide], the IC50 was 368 nM.
In the case of `Cc1nn(C)c(C)c1/C=C/C(=O)N(Cc1ccc(N(C)c2ccncc2)cc1)C1CCN(Cc2ccccc2)CC1` [Example 165, (E)-N-(1-Benzyl-piperidin-4-yl)-N-[4-(methyl-pyridin-4-yl-amino)-benzyl]-3-(1,3,5-trimethyl-1H-pyrazol-4-yl)-acrylamide], the IC50 is reported as 192 nM.
With `Cc1cc(Nc2ccc(CN(CCCN(C)C)C(=O)/C=C/c3ccc(C(F)(F)F)cc3)cc2)ccn1` [Example 166, (E)-N-(3-Dimethylamino-propyl)-N-[4-(2-methyl-pyridin-4-ylamino)-benzyl]-3-(4-trifluoromethyl-phenyl)-acrylamide] the IC50 was 68 nM.
Work on `Cc1cc(Nc2ccc(CN(CCCN(C)C)C(=O)/C=C/c3ccc(Cl)cc3)cc2)ccn1` [Example 167, (E)-3-(4-Chloro-phenyl)-N-(3-dimethylamino-propyl)-N-[4-(2-methyl-pyridin-4-ylamino)-benzyl]-acrylamide] yielded an IC50 of 110 nM.
Compound `Cc1cc(Nc2ccc(CN(C(=O)/C=C/c3ccc(C(F)(F)F)cc3)C3CCN(C4CCCC4)CC3)cn2)ccn1` [Example 168, (E)-N-(1-Cyclopentyl-piperidin-4-yl)-N-[6-(2-methyl-pyridin-4-ylamino)-pyridin-3-ylmethyl]-3-(4-trifluoromethyl-phenyl)-acrylamide] has an IC50 of 42 nM.
`Cc1cc(Nc2ccc(CN(C(=O)/C=C/c3ccc(Cl)cc3)C3CCN(C4CCCC4)CC3)cn2)ccn1` [Example 169, (E)-3-(4-Chloro-phenyl)-N-(1-cyclopentyl-piperidin-4-yl)-N-[6-(2-methyl-pyridin-4-ylamino)-pyridin-3-ylmethyl]-acrylamide] was tested, and the IC50 was 134 nM.
`Cc1cc(Nc2ccc(CN(C(=O)/C=C/c3ccc(C(F)(F)F)cc3)C3CCN(C4CCCC4)CC3)nc2)ccn1` [Example 170, (E)-N-(1-Cyclopentyl-piperidin-4-yl)-N-[5-(2-methyl-pyridin-4-ylamino)-pyridin-2-ylmethyl]-3-(4-trifluoromethyl-phenyl)-acrylamide] gave an IC50 of 67 nM.
Compound `Cc1cc(Nc2ccc(CN(C(=O)/C=C/c3ccc(Cl)cc3)C3CCN(C4CCCC4)CC3)nc2)ccn1` [Example 171, (E)-3-(4-Chloro-phenyl)-N-(1-cyclopentyl-piperidin-4-yl)-N-[5-(2-methyl-pyridin-4-ylamino)-pyridin-2-ylmethyl]-acrylamide] has an IC50 of 134 nM.
`Cc1cc(Nc2ccc(CN(CC3CCN(C4CCN(C)CC4)CC3)C(=O)/C=C/c3ccc(C(F)(F)F)cc3)cc2)ccn1` [Example 172, (E)-N-(1′-Methyl-[1,4′]bipiperidinyl-4-ylmethyl)-N-[4-(2-methyl-pyridin-4-ylamino)-benzyl]-3-(4-trifluoromethyl-phenyl)-acrylamide] gave an IC50 of 178 nM.
With `Cc1cc(Nc2ccc(CN(CCCN3CCOCC3)C(=O)/C=C/c3ccc(C(F)(F)F)cc3)cc2)ccn1` [Example 173, (E)-N-[4-(2-Methyl-pyridin-4-ylamino)-benzyl]-N-(3-morpholin-4-yl-propyl)-3-(4-trifluoromethyl-phenyl)-acrylamide] the IC50 was 355 nM.
`Cc1cc(Nc2ccc(CN(C(=O)/C=C/c3ccc(C(F)(F)F)cc3)C3CCN(C)CC3)cc2)ccn1` [Example 174, (E)-N-(1-Methyl-piperidin-4-yl)-N-[4-(2-methyl-pyridin-4-ylamino)-benzyl]-3-(4-trifluoromethyl-phenyl)-acrylamide] was tested, and the IC50 was 67 nM.
Compound `Cc1cc(Nc2ccc(CN(CC3(O)CCN(C)CC3)C(=O)/C=C/c3ccc(C(F)(F)F)cc3)cc2)ccn1` [Example 175, (E)-N-(4-Hydroxy-1-methyl-piperidin-4-ylmethyl)-N-[4-(2-methyl-pyridin-4-ylamino)-benzyl]-3-(4-trifluoromethyl-phenyl)-acrylamide] has an IC50 of 334 nM.
Work on `Cc1cc(Nc2ccc(CN(CCN(C)C)C(=O)/C=C/c3ccc(C(F)(F)F)cc3)cc2)ccn1` [Example 176, (E)-N-(2-Dimethylamino-ethyl)-N-[4-(2-methyl-pyridin-4-ylamino)-benzyl]-3-(4-trifluoromethyl-phenyl)-acrylamide] yielded an IC50 of 58 nM.
With `CN1CCC(N(C)c2ccc(CN(C(=O)/C=C/c3ccc(C(F)(F)F)cc3)C3CCN(Cc4ccccc4)CC3)cc2)CC1` [Example 177, (E)-N-(1-Benzyl-piperidin-4-yl)-N-{4-[methyl-(1-methyl-piperidin-4-yl)-amino]-benzyl}-3-(4-trifluoromethyl-phenyl)-acrylamide] the IC50 was 238 nM.
Compound `CN1CCC(N(C)c2ccc(CN(C(=O)/C=C/c3ccc(OC(F)(F)F)cc3)C3CCN(Cc4ccccc4)CC3)cc2)CC1` [Example 178, (E)-N-(1-Benzyl-piperidin-4-yl)-N-{4-[methyl-(1-methyl-piperidin-4-yl)-amino]-benzyl}-3-(4-trifluoromethoxy-phenyl)-acrylamide] has an IC50 of 343 nM.
`CN1CCC(N2CCC(N(Cc3ccc(N(C)c4ccncc4)cc3)C(=O)/C=C/c3ccc(C#N)cc3)CC2)CC1` [Example 179, (E)-3-(4-Cyano-phenyl)-N-(1′-methyl-[1,4′]bipiperidinyl-4-yl)-N-[4-(methyl-pyridin-4-yl-amino)-benzyl]-acrylamide] showed an IC50 of 54 nM.
Compound `CN1CCC(N2CCC(N(Cc3ccc(N(C)c4ccncc4)cc3)C(=O)/C=C/c3ccc(Cl)cc3)CC2)CC1` [Example 180, (E)-3-(4-Chloro-phenyl)-N-(1′-methyl-[1,4′]bipiperidinyl-4-yl)-N-[4-(methyl-pyridin-4-yl-amino)-benzyl]-acrylamide] has an IC50 of 21 nM.
